For one data set, the system named is MMP-3 secretion by HUVEC. The data set can be described thus: IL-1β-induced MMP-3 secretion by HUVEC (ELISA). The data set is classed as cell-based. To be noted: Homo sapiens, 30 min compound, then 5 ng/ml IL-1β, 24 h. How it is done:
FLS, HUVEC, SW982, and THP-1 cells were plated in 96 well plates (10^4 to 10^5 cells/well) for 48 h before treatment. At 2 days post-confluency, the cells were serum-starved and washed twice (with the exception of THP-1 cell, which were not washed) with FBS-free medium prior to the addition of test compounds. The cells were incubated in the presence or absence of test compounds or DMSO (vehicle control) for 30 min at 37°C in a 5% CO2 atmosphere, IL-1β (5 ng/ml) was added, and the cells were incubated for an additional 24 h. Culture supernatants were collected and stored at –80°C. The levels of MMP-1 and MMP-3 were determined in culture supernatants using commercially available ELISA kits according to the manufacturer’s instructions (R&D System, Minneapolis, MN, USA). IL-6 levels were also determined in the supernatants using a human IL-6 ELISA kit (BD Biosciences, San Jose, CA, USA).
(In an ELISA, binding on a coated surface is turned into a signal by an enzyme label.)

For the next data set, the system named is FLS. As to the kind of experiment: Cytotoxicity assay (CellTiter-Glo), FLS. Type of data set: cell-based, human. To be noted: during the 90-min period of the c-Jun assay. An excerpt: (§1) This study was approved by the Institutional Review Board of University of California, San Diego School of Medicine (La Jolla, CA, USA). Informed consent was obtained from all participants. Anonymous synovial tissue samples were obtained from six patients with RA at the time of total joint replacement (5 females, 1 male; age range, 44–72 years), as previously described ([Alvaro-Gracia et al., 1990]). The diagnosis of RA conformed to American College of Rheumatology 1987 revised criteria ([Arnett et al., 1988]). The synovium was minced and incubated with collagenase type VIII (0.5 mg/ml) (Sigma-Aldrich) in serum-free RPMI-1640 (Life Technologies, Grand Island, NY, USA) for 2 h at 37°C, filtered, extensively washed, and cultured in DMEM (Life Technologies) supplemented with 10% FBS (Gemini Bio Products, Calabasas, CA, USA), penicillin, streptomycin, gentamicin, and glutamine in a humidified 5% CO2 atmosphere. Cells were allowed to adhere overnight, nonadherent cells were removed, and adherent fibroblast-like synoviocytes (FLS) were split at 1:3 when 70%–80% confluent. FLS were used from passages 3 through 9, during which time they are a homogeneous population of cells (<1% CD11b positive, <1% phagocytic, and <1% FcγRII and FcγRIII receptor positive).
(§2) Cytotoxicity was analyzed using a CellTiter-Glo Luminescent Cell Viability Assay Kit (Promega), according to the manufacturer’s protocol. […] Following treatment, substrate was added to the cells, and the samples were analyzed with a Fluoroscan Ascent FL microplate reader.

A short description of data set [1]: Cytotoxicity assay (CellTiter-Glo), FLS. The data set is classed as cell-based, human. Particulars: both sexes, human; concentrations up to 50 µM; read-out: Cytotoxic effect FLS IC50.
Excerpt: as §1, §2
(In general: In ATP-based viability assays light output follows the ATP content of the culture.)

Data set [2] concerns CII-specific Abs in CIA mice. The data set can be described thus: Anti-CII antibody ELISA in serum of CIA mice. Type of data set: in vivo. Particulars: 30 mg/kg i.p. daily, day 8 to 42, vs saline. Here is the method:
Serum samples from mice with CIA were collected on day 44 after CII injection. Samples of the diluted sera were added to microtiter plates (Greiner Bio-One, Monroe, NC, USA) coated with 2 μg/ml ELISA grade mouse CII (Chondrex). Horseradish peroxidase-conjugated goat […] total IgG, IgG1, IgG2a, IgG2b, and IgG3 (Southern Biotechnology Associates, Birmingham, AL, USA) were used for detection. The samples were developed with 2,2’-azino-bis(3-ethylbenzothiazoline-6-sulphonic acid (Moss Inc., Pasadena, MD, USA), and absorbance was monitored at 415 nm using a SpectraMax Plus microplate reader. Endpoint titer represents reciprocal log 2 for the serum dilution with absorbance ≥ 0.1 above negative control.

The next data set deals with CIA in DBA1/J mice. The data set can be described thus: Collagen-induced arthritis (CIA), clinical score and histopathology. Type of data set: in vivo. To be noted: 30 mg/kg i.p. daily; for CIA joint histopathology: day 8 to 42, vs saline; for CIA symptoms (clinical score): day 8 to 42, vs vehicle. How it is done: DBA1/J male mice (6–8 weeks) were obtained from The Jackson Laboratories (Bar Harbor, ME, USA). All animal experiments were performed in accordance with National Institutes of Health guidelines and approved by the Montana State University Institutional Animal Care and Use Committee.
To induce CIA in DBA1/J mice, immunization-grade bovine Type II collagen (CII) (Chondrex, Redmond, WA, USA) was solubilized in 0.05 M acetic acid (2 mg/ml), and 100 μg of CII emulsified in complete Freund’s adjuvant containing 4 mg/ml Mycobacterium tuberculosis (Chondrex) were injected subcutaneously (s.c.) in the tail ([Kochetkova et al., 2010]).
Mice were scored using a scale of 0 to 3 for each limb, with a maximal total score of 12, as previously described ([Schepetkin et al., 2015]): 0, no signs of inflammation; 1, mild redness or swelling of single digits; 2, significant swelling of ankle or wrist with erythema; and 3, severe swelling and erythema of multiple joints.
At 44 days after CII injection (CIA) or 14 days after anti-CII antibody injection (CAIA), the mice were euthanized, and their hind limbs were collected and fixed in 10% neutral buffered formalin. The limbs were decalcified in 5% formic acid for 3 to 6 days, and the joints were embedded in paraffin. Eight 8-μm sections were cut using a sagittal projection with 40 µm spacing of the cuts. Hematoxylin and eosin (H&E) and toluidine blue (TB) staining were performed for each sample.
H&E histopathological scores for the joints were determined by using a graded scale ([Schramm et al., 2004]), separately for cartilage destruction, pannus formation, and synovial cells changes. For cartilage destruction, the scale was: 0—normal, superficial zone is smooth; 1—superficial fibrillations, some loss of surface lamina; 2—vertical clefts/erosion to the calcified cartilage up to 25% of the surface; 3—vertical clefts/erosion to the calcified cartilage more than 25% of the surface, severe chondrocytes, and cartilage matrix loss with new bone tissue substitution, bone destruction. […] All sections of the hind paws and knee joints were examined, the highest score was recorded, with a total maximum score of 36 possible per mouse. The loss of the proteoglycans and cartilage degeneration was also scored in TB-stained sections on a graded scale of 0–3, as previously described ([Bernotiene et al., 2004]): 0—no cartilage loss; 1 – minimal chondrocytes and proteoglycan loss in superficial zone; 2—moderate chondrocytes and proteoglycan loss into middle zone but above tidemark; and 3—severe cartilage degeneration through tidemark, with the maximum score of 12 possible per mouse.

The compound `O=C1c2ccccc2-n2c1nc1ccccc1c2=O` [TRYP, indolo[2,1-b]quinazolin-6,12-dione] came in with an IC50 with MMP-3 secretion by HUVEC of 12.8 ± 4.4 µM. In addition, in the data set on FLS, the FLS viability entry was “neither TRYP nor TRYP-Ox affected FLS viability”. Besides, the IC50 in data set [1] stood at 16.7 ± 1.6 µM. Moreover, the “titers of CII-specific IgG, IgG1, IgG2a, IgG2b, IgG3” value in data set [2] is given as “significantly lower”. In addition, in the data set with CIA in DBA1/J mice, the CIA joint histopathology entry is given as “little cartilage erosion, synovial hyperplasia, or cellular infiltration” and the “CIA symptoms (clinical score)” value is “significant reductions in CIA symptoms”.
In the data set with MMP-3 secretion by HUVEC, `O=c1c2ccccc2nc2n1-c1ccccc1/C2=N/O` [TRYP-Ox, tryptanthrin-6-oxime] showed an IC50 of 15.9 ± 5.8 µM. For the same compound, the FLS viability result in the data set with FLS is “neither TRYP nor TRYP-Ox affected FLS viability”. Besides, the IC50 in data set [1] is greater than 50 µM. For the same compound, in data set [2], the “titers of CII-specific IgG, IgG1, IgG2a, IgG2b, IgG3” value is “significantly lower”. Also, in the data set with CIA in DBA1/J mice, the CIA joint histopathology entry is reported as “little cartilage erosion, synovial hyperplasia, or cellular infiltration” and the “CIA symptoms (clinical score)” value is reported as “significant reductions in CIA symptoms”.

A word on the IC50: it is the concentration needed to halve the response being measured.

(Values after paper PMC7394103 (Frontiers in Pharmacology, 2020).)
